Converted amounts (≈) assume the structure as drawn. Read-outs that look alike come from different tables or passages of the source.
What was measured:
[1] = test system: P388 lymphocytic leukemia cell line; test: Murine P388 lymphocytic leukemia in vitro cell growth inhibition; format: cell-based
BXPC-3 = test: Human cancer cell line growth inhibition, Pancreas-a BXPC-3; format: cell-based; settings: for GI50: Homo sapiens
OVCAR-3 = test: Human cancer cell line growth inhibition, Ovarian OVCAR-3; format: cell-based; settings: for GI50: Homo sapiens
SF-295 = test: Human cancer cell line growth inhibition, CNS SF-295; format: cell-based; settings: for GI50: Homo sapiens
NCl-H460 = test: Human cancer cell line growth inhibition, Lung-NSC NCl-H460; format: cell-based; settings: for GI50: Homo sapiens
KM20L2 = test: Human cancer cell line growth inhibition, Colon KM20L2; format: cell-based; settings: for GI50: Homo sapiens, KM-20L2
DU-I45 = test: Human cancer cell line growth inhibition, Prostate DU-I45; format: cell-based; settings: for GI50: Homo sapiens
physchem = settings: water
[2] = test system: P388 and human tumor cell lines; test: Cytotoxicity versus the P388 and human tumor cell lines, comparative statements
[3] = 1 mL distilled water at 25° C., Table I
[4] = test system: P388 lymphocytic leukemia cell line; settings: literature (Pettit et al, 1987, 1989); cited from earlier work
[5] = test system: tubulin (microtubule assembly); settings: literature (Pettit et al, 1987, 1989); read-out: IC50 inhibiting microtubule assembly in vitro; cited from earlier work
tubulin = settings: at equal concentrations; cited from earlier work
P388 leukemia = settings: early murine P388 leukemia in vivo experiments, compared with combretastatin A-4; cited from earlier work

Row | Compound | Leukemia P388 ED50 ([1]; P388 cell line) [µg/mL] | Pancreas-a BXPC-3 GI50 (BXPC-3) [µg/mL] | Ovarian OVCAR-3 GI50 (OVCAR-3) [µg/mL] | CNS SF-295 GI50 (SF-295) [µg/mL] | Lung-NSC NCl-H460 GI50 (NCl-H460) [µg/mL] | Colon KM20L2 GI50 (KM20L2) [µg/mL] | Prostate DU-I45 GI50 (DU-I45) [µg/mL] | further results
1 | COc1cc(CCc2ccc(OC)c(OP(=O)(O)O)c2OP(=O)(O)O)cc(OC)c1OC [Compound 5, Sodium Combretastatin B-1 2′,3′-O-Diphosphate] | 0.335 | – | – | – | – | – | – | GI50 (BXPC-3): > 10 µg/mL; GI50 (OVCAR-3): 2 µg/mL; GI50 (SF-295): 2.3 µg/mL; GI50 (NCl-H460): 3.3 µg/mL; GI50 (KM20L2): > 10 µg/mL; GI50 (DU-I45): 2.7 µg/mL; solubility (physchem; 25 °C): > 50 mg/mL; cytotoxicity / antineoplastic activity compared to prodrug 4 [2]: reduced antineoplastic activity
2 | Quinine Combretastatin A-1 2′,3′-O-dephosphate [Compound 11k] | 0.004 | 0.47 | 0.054 | 0.044 | 0.34 | 0.40 | 0.050 | –
3 | Papaverine Combretastatin A-1 2′,3′-O-diphosphate [Compound 11n] | 0.05 | 0.38 | 0.052 | 0.063 | 0.27 | 0.33 | 0.054 | –
4 | COc1cc(/C=C\c2ccc(OC)c(OP(=O)(O)O)c2OP(=O)(O)O)cc(OC)c1OC [Compound 4, Sodium Combretastatin A-1 2′,3′-O-diphosphate] | <0.0100 | – | – | – | – | – | – | GI50 (BXPC-3): 1.5 µg/mL; GI50 (OVCAR-3): 0.024 µg/mL; GI50 (SF-295): 0.036 µg/mL; GI50 (NCl-H460): 0.038 µg/mL; GI50 (KM20L2): 0.53 µg/mL; GI50 (DU-I45): 0.034 µg/mL; solubility ([3]; second part (column repeated)): 120 mg/mL; solubility (physchem; 25 °C): 120 mg/mL; solubility (physchem): 120 mg/mL
5 | COc1ccc(/C=C\c2cc(OC)c(OC)c(OC)c2)cc1O [Compound 3a, combretastatin A-4, reference compound] | […] | – | – | – | – | – | – | GI50 (BXPC-3): 0.39 µg/mL (≈ 1230 nM); GI50 (OVCAR-3): < 0.001 µg/mL; GI50 (SF-295): < 0.001 µg/mL; GI50 (NCl-H460): 0.0006 µg/mL (≈ 1.9 nM); GI50 (KM20L2): 0.061 µg/mL (≈ 193 nM); GI50 (DU-I45): 0.0008 µg/mL (≈ 2.53 nM); ED50 against murine P388 lymphocytic leukemia in vitro system [4]: ~0.0009 µg/mL (≈ 2.84 nM); IC50 [5]: […]
6 | COc1cc(/C=C\c2ccc(OC)c(OP(=O)([O-])[O-])c2OP(=O)([O-])[O-])cc(OC)c1OC.[K+].[K+].[K+].[K+] [Compound 11b, Potassium Combretastatin A-1 2′,3′-O-diphosphate] | 0.0170 | 0.38 | 0.023 | 0.035 | 0.036 | 0.30 | 0.024 | solubility ([3]; first part): >90 mg/mL; solubility ([3]; second part (column repeated)): >90 mg/mL
7 | COc1cc(/C=C\c2ccc(OC)c(OP(=O)([O-])[O-])c2OP(=O)([O-])[O-])cc(OC)c1OC.[Zn+2].[Zn+2] [Compound 11g, Dizinc Combretastatin A-1 2′,3′-O-diphosphate] | 0.0394 | 0.36 | 0.027 | 0.033 | 0.032 | 0.32 | 0.025 | –
8 | Magnesium Combretastatin A-1 2′,3′-O-diphosphate [Compound 11d] | 0.0245 | 0.44 | 0.031 | 0.039 | 0.039 | 0.47 | 0.032 | –
9 | COc1cc(/C=C\c2ccc(OC)c(OP(=O)([O-])[O-])c2OP(=O)([O-])[O-])cc(OC)c1OC.[Cs+].[Cs+].[Cs+].[Cs+] [Compound 11c, Cesium Combretastatin A-1 2′,3′-O-diphosphate] | 0.0365 | 0.31 | 0.024 | 0.038 | 0.040 | 0.28 | 0.024 | –
10 | COc1cc(/C=C\c2ccc(OC)c(OP(=O)([O-])[O-])c2OP(=O)([O-])[O-])cc(OC)c1OC.[Mn+2].[Mn+2] [Compound 11f, Manganese Combretastatin A-1 2′, 3′-O-diphosphate] | 0.715 | 4.7 | 0.044 | 0.28 | 0.19 | 6.1 | 2.4 | –
11 | Quinidine Combretastatin A-1 2′,3′-O-diphosphate [Compound 11l] | 0.004 | 0.55 | 0.043 | 0.056 | 0.37 | 0.84 | 0.10 | –
12 | COc1ccc(CCc2cc(OC)c(OC)c(OC)c2)c(O)c1O [Compound 2, combretastatin B-1] | – | – | – | – | – | – | – | Leukemia P388 ED50 [1]: 1.7 µg/mL; ED50 against murine P388 lymphocytic leukemia in vitro system [4]: 1.7 µg/mL (≈ 5080 nM); IC50 [5]: 3000 nM
13 | Morpholine Combretastatin A-1 2′,3′-O-diphosphate [Compound 11h] | 0.002 | 0.35 | 0.043 | 0.042 | 0.046 | 0.26 | 0.039 | –
14 | COc1cc(/C=C\c2ccc(OC)c(OP(=O)([O-])[O-])c2OP(=O)([O-])[O-])cc(OC)c1OC.[Li+].[Li+].[Li+].[Li+] [Compound 11a, Lithium Combretastatin A-1 2′,3′-O-diphosphate] | <0.0100 | 0.33 | 0.028 | 0.042 | 0.040 | 0.37 | 0.031 | –
15 | Calcium Combretastatin A-1 2′,3′-O-diphosphate [Compound 11e] | 0.0102 | 0.28 | 0.024 | 0.041 | 0.037 | 0.34 | 0.024 | –
16 | COc1ccc(/C=C\c2cc(OC)c(OC)c(OC)c2)c(O)c1O [Compound 1, Combretastatin A-1] | 0.251 | 4.4 | – | – | 0.74 | – | 0.17 | ED50 against murine P388 lymphocytic leukemia in vitro system [4]: 0.99 µg/mL (≈ 2980 nM); IC50 [5]: 2000 nM; inhibition of colchicine binding to tubulin (tubulin): ~99%; antineoplastic results in vivo (P388 leukemia): more consistent antineoplastic results
17 | Piperazine Combretastatin in A-1 2′,3′-O-diphosphate [Compound 11i] | 0.002 | 0.35 | 0.046 | 0.039 | 0.037 | 0.20 | 0.036 | –
18 | Nicotinamide Combretastatin A-1 2′,3′-O-diphosphate [Compound 11j] | 0.005 | 0.42 | 0.054 | 0.053 | 0.15 | 0.53 | 0.046 | –

— patent publication US7078552B2, “Combretastatin A-1 phosphate and combretastatin B-1 phosphate prodrugs” (Arizona Board of Regents, priority 2000, dated 2006)
